{"source": "ChEMBL document CHEMBL5608163", "about": "“Structure modification of anoplin for fighting resistant bacteria” (Eur J Med Chem, 2024)", "key": {"Enterococcus faecium [1]": {"system": "Enterococcus faecium", "experiment": "Antibacterial activity against Enterococcus faecium", "type": "functional"}, "Escherichia coli [2]": {"system": "Escherichia coli", "experiment": "Antibacterial activity against Escherichia coli", "type": "functional"}, "[3]": {"experiment": "Hemolytic activity in human red blood cells", "type": "toxicity, cell-based, Erythrocyte", "settings": "red blood cells"}, "Staphylococcus aureus [4]": {"system": "Staphylococcus aureus", "experiment": "Antibacterial activity against Staphylococcus aureus", "type": "functional"}, "[5]": {"experiment": "Hemolytic activity in human RBC assessed as hemolysis measured after 24 hrs", "type": "toxicity, cell-based, Erythrocyte", "settings": "red blood cells"}, "Pseudomonas aeruginosa [6]": {"system": "Pseudomonas aeruginosa", "experiment": "Antibacterial activity against Pseudomonas aeruginosa", "type": "functional"}, "Staphylococcus aureus [7]": {"system": "Staphylococcus aureus", "experiment": "Antibacterial activity against methicillin-resistant Staphylococcus aureus ATCC 33591 assessed as reduction in bacterial growth incubated for 18 hrs by agar dilution method", "type": "functional"}, "Pseudomonas aeruginosa [8]": {"system": "Pseudomonas aeruginosa", "experiment": "Antibacterial activity against Pseudomonas aeruginosa ATCC 27853 assessed as reduction in microbial growth incubated for 16 to 20 hrs by CLSI protocol based Muller Hinton broth assay", "type": "functional", "settings": "time 16-20 hrs"}, "Enterococcus faecium [9]": {"system": "Enterococcus faecium", "experiment": "Antibacterial activity against vancomycin resistant Enterococcus faecium ATCC 700221 assessed as inhibition of bacterial growth incubated for 48 hrs by CLSI-based broth microdilution assay", "type": "functional"}, "Bacillus subtilis [10]": {"system": "Bacillus subtilis", "experiment": "Antibacterial activity against Bacillus subtilis assessed as reduction in bacterial growth incubated for 24 hrs by broth microdilution assay", "type": "functional"}, "[11]": {"system": "Mycolicibacterium smegmatis", "experiment": "Antimycobacterial activity against Mycobacterium smegmatis mc2 155 assessed as reduction in bacterial cell growth by resazurin reduction method", "type": "functional"}, "Escherichia coli [12]": {"system": "Escherichia coli", "experiment": "Antibacterial activity against Escherichia coli ATCC 25922 assessed as reduction in microbial growth incubated for 16 to 20 hrs by CLSI protocol based Muller Hinton broth assay", "type": "functional", "settings": "time 16-20 hrs"}, "Staphylococcus aureus [13]": {"system": "Staphylococcus aureus", "experiment": "Antibacterial activity against methicillin-resistant Staphylococcus aureus ATCC BAA1720 assessed as bacterial growth inhibition measured for 18 hrs by CLSI-protocol based Mueller-Hinton Broth micro-dilution assay", "type": "functional"}, "Escherichia coli [14]": {"system": "Escherichia coli", "experiment": "Antibacterial activity against Escherichia coli ATCC 25922 assessed as reduction in bacterial growth measured after 24 hrs by Mueller-Hinton broth based two-fold serial dilution method", "type": "functional"}, "Bacillus subtilis [15]": {"system": "Bacillus subtilis", "experiment": "Antibacterial activity against Bacillus subtilis assessed as reduction in bacterial growth incubated for 20 hrs by broth microdilution assay", "type": "functional"}, "Escherichia coli [16]": {"system": "Escherichia coli", "experiment": "Antibacterial activity against Escherichia coli MG1655 assessed as bacterial growth inhibition measured for 18 hrs by CLSI-protocol based Mueller-Hinton Broth micro-dilution assay", "type": "functional"}, "Bacillus subtilis [17]": {"system": "Bacillus subtilis", "experiment": "Antimicrobial activity against Bacillus subtilis assessed as reduction in microbial growth measured after 18 to 20 hrs by Mueller-Hinton broth based two-fold serial dilution method", "type": "functional", "settings": "time 18-20 hrs"}, "Staphylococcus aureus [18]": {"system": "Staphylococcus aureus", "experiment": "Antibacterial activity against Staphylococcus aureus ATCC 25923 assessed as reduction in bacterial growth measured after 24 hrs by Mueller-Hinton broth based two-fold serial dilution method", "type": "functional"}, "Pseudomonas aeruginosa [19]": {"system": "Pseudomonas aeruginosa", "experiment": "Antibacterial activity against Pseudomonas aeruginosa ATCC 27853 assessed as bacterial growth inhibition measured for 18 hrs by CLSI-protocol based Mueller-Hinton Broth micro-dilution assay", "type": "functional"}, "Escherichia coli [20]": {"system": "Escherichia coli", "experiment": "Antibacterial activity against Escherichia coli assessed as reduction in bacterial growth incubated for 20 hrs by broth microdilution assay", "type": "functional"}, "Pseudomonas aeruginosa [21]": {"system": "Pseudomonas aeruginosa", "experiment": "Antibacterial activity against Pseudomonas aeruginosa assessed as reduction in bacterial growth incubated for 20 hrs by broth microdilution assay", "type": "functional"}, "Staphylococcus aureus [22]": {"system": "Staphylococcus aureus", "experiment": "Antibacterial activity against Staphylococcus aureus assessed as bacterial growth inhibition incubated for 20 hrs by broth microdilution assay", "type": "functional"}, "Pseudomonas aeruginosa [23]": {"system": "Pseudomonas aeruginosa", "experiment": "Antibacterial activity against Pseudomonas aeruginosa PAO1 assessed as bacterial growth inhibition measured for 18 hrs by CLSI-protocol based Mueller-Hinton Broth micro-dilution assay", "type": "functional"}, "[24]": {"experiment": "Hemolytic activity against Red blood cells (unknown origin) incubated for 1 hr by spectrophotometric analysis", "type": "toxicity, cell-based, Erythrocyte"}, "Erythrocyte": {"system": "Erythrocyte", "experiment": "Hemolytic activity in sheep RBC incubated for 30 mins", "type": "toxicity, cell-based, Ovis aries", "settings": "0.5 h"}, "Salmonella typhimurium": {"system": "Salmonella typhimurium", "experiment": "Antibacterial activity against Salmonella enterica subsp. enterica serovar Typhimurium LT2 assessed as bacterial growth inhibition measured for 18 hrs by CLSI-protocol based Mueller-Hinton Broth micro-dilution assay", "type": "functional"}, "Escherichia coli [25]": {"system": "Escherichia coli", "experiment": "Antibacterial activity against Escherichia coli K12 assessed as bacterial growth inhibition measured for 18 hrs by CLSI-protocol based Mueller-Hinton Broth micro-dilution assay", "type": "functional"}, "Bacillus subtilis [26]": {"system": "Bacillus subtilis", "experiment": "Antibacterial activity against Bacillus subtilis 168 assessed as bacterial growth inhibition measured for 18 hrs by CLSI-protocol based Mueller-Hinton Broth micro-dilution assay", "type": "functional"}, "Escherichia coli [27]": {"system": "Escherichia coli", "experiment": "Antibacterial activity against wild type Escherichia coli MG1655 assessed as reduction in bacterial growth incubated for 18 to 24 hrs by broth micro-dilution method", "type": "functional", "settings": "time 18-24 hrs"}, "Staphylococcus aureus [28]": {"system": "Staphylococcus aureus", "experiment": "Antibacterial activity against Staphylococcus aureus ATCC 29213 assessed as bacterial growth inhibition measured for 18 hrs by CLSI-protocol based Mueller-Hinton Broth micro-dilution assay", "type": "functional"}, "Escherichia coli [29]": {"system": "Escherichia coli", "experiment": "Antibacterial activity against Escherichia coli DH5alpha assessed as bacterial growth inhibition", "type": "functional"}, "Bacillus subtilis [30]": {"system": "Bacillus subtilis", "experiment": "Antibacterial activity against Bacillus subtilis ATCC 23857 assessed as reduction in bacterial cell growth incubated for 24 hrs by broth micro-dilution analysis", "type": "functional"}, "Enterococcus faecium [31]": {"system": "Enterococcus faecium", "experiment": "Antibacterial activity against Enterococcus faecium ATCC 700221 assessed as reduction in bacterial cell growth by CLSI broth microdilution method", "type": "functional"}, "Staphylococcus aureus [32]": {"system": "Staphylococcus aureus", "experiment": "Antibacterial activity against Staphylococcus aureus ATCC 25923 assessed as reduction in bacterial growth incubated for 24 hrs by serial dilution method", "type": "functional"}, "Pseudomonas aeruginosa [33]": {"system": "Pseudomonas aeruginosa", "experiment": "Antibacterial activity against Pseudomonas aeruginosa ATCC 27853 assessed as reduction in bacterial growth by broth microdilution method", "type": "functional"}, "[34]": {"experiment": "Hemolytic activity in human RBC assessed as hemolysis", "type": "toxicity, cell-based, Erythrocyte", "settings": "red blood cells"}, "Escherichia coli [35]": {"system": "Escherichia coli", "experiment": "Antibacterial activity against Escherichia coli ATCC 25922 assessed as bacterial growth inhibition measured after 48 hrs by resazurin assay", "type": "functional"}}, "note": "Peptide text beside a SMILES is read from it.", "data": [{"smiles": "CC[C@H](C)[C@H](NC(=O)[C@H](CCCCN)NC(=O)[C@H](CCCCN)NC(=O)[C@H](CC(C)C)NC(=O)[C@H](CC(C)C)NC(=O)CN)C(=O)N[C@@H](CCCCN)C(=O)N[C@@H](CCCCN)C(=O)N[C@@H](CC(C)C)C(=O)N[C@@H](CC(C)C)C(N)=O", "values": [{"measurement": "MIC", "setting": "Enterococcus faecium [1]", "value": 56.9, "unit": "µM"}, {"measurement": "MIC", "setting": "Escherichia coli [2]", "value": 25, "unit": "µM"}, {"measurement": "HC50", "setting": "[3]", "value": "< 500", "unit": "µM"}, {"measurement": "MIC", "setting": "Staphylococcus aureus [4]", "value": 256, "unit": "µM"}, {"measurement": "HC50 at 24 h", "setting": "[5]", "value": "> 500", "unit": "µM"}, {"measurement": "MIC", "setting": "Pseudomonas aeruginosa [6]", "value": 28.4, "unit": "µM"}]}, {"smiles": "CC[C@H](C)[C@H](NC(=O)[C@H](Cc1ccccc1)NC(=O)[C@H](CCCCN)NC(=O)[C@H](CC(C)C)NC(=O)[C@H](CC(C)C)NC(=O)CN)C(=O)N[C@@H](CCCCN)C(=O)N[C@@H](CCCCN)C(=O)N[C@@H](CC(C)C)C(=O)N[C@@H](CC(C)C)C(N)=O", "note": "(H-GLLKFIKKLL-NH2)", "values": [{"measurement": "MIC", "setting": "Staphylococcus aureus [7]", "value": 9.5, "unit": "µM"}, {"measurement": "MIC", "setting": "Pseudomonas aeruginosa [8]", "value": 28.4, "unit": "µM"}, {"measurement": "MIC", "setting": "Enterococcus faecium [9]", "value": 9.5, "unit": "µM"}, {"measurement": "MIC", "setting": "Bacillus subtilis [10]", "value": 25.6, "unit": "µM"}, {"measurement": "MIC", "setting": "[11]", "value": 12.8, "unit": "µM"}, {"measurement": "HC50 at 24 h", "setting": "[5]", "value": 13.6, "unit": "µM"}, {"measurement": "MIC", "setting": "Escherichia coli [12]", "value": 9.5, "unit": "µM"}]}, {"smiles": "CC.CC[C@H](C)[C@H](NC(=O)[C@H](CCCNC(=N)N)NC(=O)[C@H](CCCCN)NC(=O)[C@H](CC(C)C)NC(=O)[C@H](CC(C)C)NC(=O)CN)C(=O)N[C@@H](CCCCN)C(=O)N[C@H](C(=O)N[C@@H](CC(C)C)C(=O)N[C@@H](CC(C)C)C(N)=O)[C@@H](C)O", "values": [{"measurement": "MIC", "setting": "Staphylococcus aureus [13]", "value": "≥ 64", "unit": "µM"}, {"measurement": "MIC", "setting": "Escherichia coli [14]", "value": "> 22.6", "unit": "µM"}, {"measurement": "MIC", "setting": "Bacillus subtilis [15]", "value": 32, "unit": "µM"}, {"measurement": "MIC", "setting": "Escherichia coli [16]", "value": 32, "unit": "µM"}, {"measurement": "MIC", "setting": "Bacillus subtilis [17]", "value": 16, "unit": "µM"}, {"measurement": "MIC", "setting": "Staphylococcus aureus [18]", "value": 11.3, "unit": "µM"}, {"measurement": "MIC", "setting": "Pseudomonas aeruginosa [19]", "value": 32, "unit": "µM"}, {"measurement": "MIC", "setting": "Escherichia coli [20]", "value": 64, "unit": "µM"}, {"measurement": "MIC", "setting": "Pseudomonas aeruginosa [21]", "value": 32, "unit": "µM"}, {"measurement": "MIC", "setting": "Staphylococcus aureus [22]", "value": 64, "unit": "µM"}, {"measurement": "MIC", "setting": "Pseudomonas aeruginosa [23]", "value": 16, "unit": "µM"}, {"measurement": "HC50 at 1 h", "setting": "[24]", "value": "> 400", "unit": "µM"}, {"measurement": "HC10", "setting": "Erythrocyte", "value": "> 64", "unit": "µM"}, {"measurement": "MIC", "setting": "Salmonella typhimurium", "value": 64, "unit": "µM"}, {"measurement": "MIC", "setting": "Escherichia coli [25]", "value": 32, "unit": "µM"}, {"measurement": "MIC", "setting": "Bacillus subtilis [26]", "value": 16, "unit": "µM"}, {"measurement": "MIC", "setting": "Escherichia coli [27]", "value": 32, "unit": "µM"}, {"measurement": "MIC", "setting": "Staphylococcus aureus [28]", "value": "≥ 64", "unit": "µM"}]}, {"smiles": "CC[C@H](C)[C@H](NC(=O)[C@H](CCCNC(=N)N)NC(=O)[C@H](CCCCN)NC(=O)[C@H](CC(C)C)NC(=O)[C@H](CC(C)C)NC(=O)CN)C(=O)N[C@@H](CCCCN)C(=O)N[C@H](C(=O)N[C@@H](CC(C)C)C(=O)N[C@@H](CC(C)C)C(N)=O)[C@@H](C)O", "note": "[ANOPLIN]", "values": [{"measurement": "MIC", "setting": "Escherichia coli [29]", "value": 86.7, "unit": "µM"}, {"measurement": "MIC", "setting": "Bacillus subtilis [30]", "value": 43.4, "unit": "µM"}]}, {"smiles": "CC[C@H](C)[C@H](NC(=O)[C@H](CCCNC(=N)N)NC(=O)[C@H](CCCCN)NC(=O)[C@H](CC(C)C)NC(=O)[C@H](CC(C)C)NC(=O)CN)C(=O)N[C@@H](CCCCN)C(=O)N[C@@H](CCCCN)C(=O)N[C@@H](CC(C)C)C(=O)N[C@@H](CC(C)C)C(N)=O", "note": "(H-GLLKRIKKLL-NH2)", "values": [{"measurement": "MIC", "setting": "Enterococcus faecium [31]", "value": 66.3, "unit": "µM"}, {"measurement": "MIC", "setting": "Staphylococcus aureus [32]", "value": 4.2, "unit": "µM"}, {"measurement": "MIC", "setting": "Pseudomonas aeruginosa [33]", "value": 28.4, "unit": "µM"}, {"measurement": "HC50", "setting": "[34]", "value": "> 312", "unit": "µM"}, {"measurement": "MIC", "setting": "Escherichia coli [35]", "value": 8.5, "unit": "µM"}]}]}
